According to patent US8785452B2, “Anti-infective compounds” (priority 2008, dated 2014):
Read-outs that look alike come from different tables or passages of the source.

Assays:
Raw264.7 cells [1] = assay: Cell number (CellNb) from image analysis of the phenotypic cell-based assay; conditions: for Primary QIM CellNb: primary screen, 20 μM
Raw264.7 cells [2] = conditions: mouse, 5 days; for Primary QIM CellNb: 20 μM
[3] = test system: M. tuberculosis H37Rv-GFP; assay: microbe, parasite or virus in culture; assay type: cell-based, Mycobacterium tuberculosis; conditions: Mycobacterium tuberculosis, H37RV, Macrophage
[4] = confirmation, 20 uM, read-out: QIM Confirm % Inhibition 20 uM
[5] = primary screen, 20 μM, read-out: Primary QIM % Inhibition

| Compound | Primary QIM CellNb (Raw264.7 cells [1]) | Primary QIM CellNb (Raw264.7 cells [2]) | inhibition at 20 µM [3, 4] | inhibition at 20 µM [3, 5] | QIM Confirm CellNb 0.2 uM (Raw264.7 cells [2]) | QIM Confirm CellNb 20 uM (Raw264.7 cells [1]; confirmation, 20 uM) | QIM Confirm CellNb 20 uM (Raw264.7 cells [2]; 20 uM) | QIM Confirm CellNb 2 uM (Raw264.7 cells [1]; confirmation, 2 uM) | QIM Confirm CellNb 2 uM (Raw264.7 cells [2]; 2 uM) | inhibition at 20 µM ([3]; confirmation, 20 uM, intracellular, read-out: QIM Confirm % Inhibition 20 uM) | inhibition at 20 µM ([3]; primary screen, 20 μM, intracellular, read-out: Primary QIM % Inhibition) |
| --- | --- | --- | --- | --- | --- | --- | --- | --- | --- | --- | --- |
| CCCCOc1ccc(/C=N/NC(=O)c2ccncc2)cc1 [IPK 000 043 06] | 200.3 | 98.1 | 98% | 81.4% |  |  |  |  |  |  |  |
| CN(C)c1ccc(/C=N/NC(=O)c2ccncc2)cc1 [IPK 000 042 96] | 216.3 | 101.1 | 105% | 84.3% |  |  |  |  |  |  |  |
| CCc1ccc(/C=N/NC(=O)c2ccncc2)cc1 [IPK 000 043 31] | 334.0 | 101.5 | 100% | 94.6% |  |  |  |  |  |  |  |
| O=C(Nc1cc(Cl)cc(Cl)c1)c1cc([N+](=O)[O-])ccc1Cl [IPK 000 049 20] | 155.5 | 54.8 | 88.6% | 71.5% |  |  |  |  |  |  |  |
| Cc1nc2c(o1)NC(N)=C(C#N)C2c1c[nH]nc1C (stereo not shown) [IPK 000 065 03] | 197.8 | 1.1 | 73.2% | 68.2% |  |  |  |  |  |  |  |
| C=CCn1c(Cc2ccccc2)nc2c(cnn2-c2ccccc2)c1=O [IPK 000 073 11] | 147.8 | −10.5 | 56.1% | 49.1% | 67.2 |  |  |  |  |  |  |
| O=C(N/N=C/c1ccc([N+](=O)[O-])s1)C1CCN(Cc2ccc(Br)cc2)CC1 [IPK 000 091 49] | 110.5 | 9.3 | 95.1% | 90.5% |  |  |  |  |  |  |  |
| O=C(N/N=C\c1cc2c(s1)CCCCC2)c1ccncc1 [IPK 000 102 07] | 116.0 | 99.5 | 84.7% | 94.7% |  | 124.8 | 79.6 |  |  |  |  |
| N#Cc1cc(Br)c([N+](=O)[O-])cc1C#N [IPK 000 042 72] | 152.0 | −1.9 | 57.6% | 11.9% |  |  |  | 96.1 | 82.5 |  |  |
| COc1cccc(/C=N/NC(=O)c2ccncc2)c1O [IPK 000 043 08] | 255.5 | 102.7 | 95.1% | 87.3% |  |  |  |  |  |  |  |
| O=C(N/N=C/c1cc([N+](=O)[O-])ccc1O)c1ccncc1 [IPK 000 042 98] | 350.0 | 95.3 | 105% | 102% |  |  |  |  |  |  |  |
| CC(NC(=O)c1ccc(C(C)(C)C)cc1)c1ccccc1 (stereo not shown) [IPK 000 067 61] | 182.0 | 28.2 | 68.5% | 84.3% |  |  |  |  |  |  |  |
| CC(C)c1ccc(/C=N/NC(=O)c2ccncc2)cc1 [IPK 000 043 32] | 164.0 | 94.5 | 102% | 60.5% |  |  |  |  |  |  |  |
| O=C(Nc1cccnc1)c1ccc(COc2ccc3ccccc3c2)o1 [IPK 000 124 43] | 168.3 | 26.2 | 64.7% | 35.6% |  |  |  |  |  |  |  |
| CCCC(=O)/N=C(\N)Nc1nc2ccccc2o1 [IPK 000 122 62] | 131.5 | 26.2 | 65.1% | 62.8% |  |  |  |  |  |  |  |
| CSc1nsc(SCc2ccc(C(=O)Nc3ccc(C)cc3C)cc2)n1 [IPK 000 125 08] |  |  |  |  | 388.9 |  |  |  |  | 65.1% | 72.8% |
| C/C(=N\NC(N)=S)c1ccccc1O [IPK 000 080 38] | 307.5 | 32.1 | 3.4% | 21% |  |  |  |  |  |  |  |
| CCOC(=O)CSc1nc(N)c(C(=O)Nc2ccc(N(C)C)cc2)s1 [IPK 000 105 70] | 315.5 | 4.7 | 84.6% | 61.2% |  |  |  |  |  |  |  |
